Assay results as given in article PMC12281424, “A Rac-specific competitive inhibitor of guanine nucleotide binding reduces metastasis in triple-negative breast cancer” (Cell Reports Medicine, 2025).

Columns and labels:
[1] = test system: other breast cancer cell lines and other types of cancer cell lines; assay: Focus formation (clonogenic) assay; format: cell-based; conditions: 10 μM
Description: Figure 5 A41 decreases growth and invasiveness of TNBC cells in vitro (A) Representative images of RAC-GTP levels (red) in MDA-MB-468 Luc cells in the absence (CTL) and presence of EHT1864, NSC23766, or A41 (1 h at 10 μM) (left). Luciferase (Luc, green) was used to detect the cells. RAC-GTP mean fluorescence intensity was quantified inside the cell area (right) (n = 31–37 cells from 3 independent experiments; ∗p < 0.05, ∗∗∗p < 0.001) (scale bars: 10 μm). […] (C) Quantification of colony number of indicated cancer cell lines in the presence of A41 (10 μM) expressed as the percentage of control in the absence of A41. Results shown are representative of N > 3 independent experiments. (D) Immunoblot analysis and corresponding quantification of AKT and P44/42 expression and phosphorylation (pAKT, p44/42) in MDA-MB-468 Luc cells in the absence (−) and presence of NSC23766 or A41 (1 h at 10^−5 M). Results shown are representative of 3 independent experiments. ∗∗p < 0.01 vs. untreated cells, ^###p < 0.001 vs. NSC23766-treated cells. (E) 3D invasion assay of MDA-MB-468 Luc and cancer-associated fibroblasts (CAFs) and corresponding quantification (scale bars: 200 μm). […]
1000 cells/well from the indicated cancer cell lines were seeded in 6-wells plates and allowed to grow 2 days before treatments. […] The area occupied by the cells was then quantified with ImageJ software. […]

[2] = test system: 4T1 tumor cells; assay: Syngeneic breast cancer model; format: in vivo, mouse; conditions: BALB/c mice
Description: Figure 6 A41 decreases metastasis of TNBC cells in vivo (A) Representative images of luciferase bioluminescence intensities (BLI) in whole body, legs, and ovaries/uterus 4 weeks after resection of MD1-MB-468 Luc tumor in NMRI nude mice not treated (control) and treated with A41 (25 mg/kg/day, intraperitoneally for 4 weeks). (B) Metastasis frequency quantification based on ex vivo BLI measurements in indicated organs from control (black bars) and A41-treated mice 4 weeks after tumor resection (white bars) (N = 10–15 mice; ∗p < 0.05 vs. controls). (C) BLI quantification in legs and ovaries/uterus from control (black squares) and A41-treated (white squares) NMRI nude mice 4 weeks after tumor resection (N = 10–15 mice; ∗p < 0.05 vs. controls). (D) Cumulative proportion of immunocompetent control (red) and A41-treated mice (blue) displaying regrowth of the primary tumor after its resection. (E) Metastasis frequency quantified from ex vivo BLI measurements in leg bones, lungs, kidneys, and ovaries/uterus from immunocompetent control (black bar) and A41-treated (white bar) mice (N = 10 mice; ∗p < 0.05 vs. control). (F) Survival curve of immunocompetent control (red) and A41-treated mice (blue) after primary tumor resection (day 0).
To circumvent this limitation and evaluate if the immune system could affect the anti-metastatic property of A41, we evaluated its effect in a syngeneic model. We injected murine 4T1 tumor cells into the mammary fat pad of immunocompetent BALB/c mice.

[3] = biological target: Protein Tyrosine Kinase, Insulin Receptor (Homo sapiens, UniProt P06213); assay: Safety screen; format: biochemical
Description: (§1) The kinase profiler was performed by the company Eurofins (Discovery, Panlab and Cerep).

[4] = test system: GABAA, Chloride Channel, TBOB; assay: Safety screen; format: binding, rat
Description: (§2) Blood cell counts, kinase profiler, safety screen, bacterial cytotoxicity, Ames, micronucleus assays were performed by the company Eurofins (France).

[5] = biological target: Opiate δ1 (OP1, DOP) (Homo sapiens, UniProt P41143); assay: Safety screen; format: binding
Description: as §2

[6] = biological target: Serotonin (5-Hydroxytryptamine) 5-HT1B (Homo sapiens, UniProt P28222); assay: Safety screen; format: binding
Description: (§3) Blood cell counts, kinase profiler, safety screen, bacterial cytotoxicity, Ames, micronucleus assays were performed by the company Eurofins (France). The kinase profiler was performed by the company Eurofins (Discovery, Panlab and Cerep).

[7] = biological target: Blk(m) (Mus musculus, UniProt P16277); assay: Kinase Profiler; format: biochemical
Description: as §3

[8] = biological target: BTK(h) (Homo sapiens, UniProt Q06187); assay: Kinase Profiler; format: biochemical
Description: as §3

[9] = biological target: CaMKIV(h) (Homo sapiens, UniProt Q16566); assay: Kinase Profiler; format: biochemical
Description: as §1

[10] = biological target: CDK7/cyclinH/MAT1(h) (Homo sapiens, UniProt P50613); assay: Kinase Profiler; format: biochemical
Description: as §3

[11] = biological target: cKit(D816V)(h) (Homo sapiens, UniProt P10721, D816V); assay: Kinase Profiler; format: biochemical
Description: as §3

[12] = biological target: Fer(h) (Homo sapiens, UniProt P16591); assay: Kinase Profiler; format: biochemical
Description: as §1

[13] = biological target: IKKα(h) (Homo sapiens, UniProt O15111); assay: Kinase Profiler; format: biochemical
Description: as §3

[14] = biological target: MELK(h) (Homo sapiens, UniProt Q14680); assay: Kinase Profiler; format: biochemical
Description: as §1

[15] = biological target: Met(M1268T)(h) (Homo sapiens, UniProt P08581, M1250T); assay: Kinase Profiler; format: biochemical
Description: as §1

[16] = biological target: Met(Y1248H)(h) (Homo sapiens, UniProt P08581, Y1230H); assay: Kinase Profiler; format: biochemical
Description: as §1

[17] = biological target: NEK1(h) (Homo sapiens, UniProt Q96PY6); assay: Kinase Profiler; format: biochemical
Description: as §1

[18] = biological target: PDK1(h) (Homo sapiens, UniProt O15530); assay: Kinase Profiler; format: biochemical
Description: as §3

[19] = biological target: Rsk1(r) (Rattus norvegicus, UniProt Q63531); assay: Kinase Profiler; format: biochemical
Description: as §1

[20] = biological target: TBK1(h) (Homo sapiens, UniProt Q9UHD2); assay: Kinase Profiler; format: biochemical
Description: as §3

[21] = biological target: ZAK(h) (Homo sapiens, UniProt Q9NYL2); assay: Kinase Profiler; format: biochemical
Description: as §1

[22] = biological target: ATM(h) (Homo sapiens, UniProt Q13315); assay: Kinase Profiler; format: biochemical
Description: as §1

Chain of CDK7/cyclinH/MAT1(h) (P50613 whole entry): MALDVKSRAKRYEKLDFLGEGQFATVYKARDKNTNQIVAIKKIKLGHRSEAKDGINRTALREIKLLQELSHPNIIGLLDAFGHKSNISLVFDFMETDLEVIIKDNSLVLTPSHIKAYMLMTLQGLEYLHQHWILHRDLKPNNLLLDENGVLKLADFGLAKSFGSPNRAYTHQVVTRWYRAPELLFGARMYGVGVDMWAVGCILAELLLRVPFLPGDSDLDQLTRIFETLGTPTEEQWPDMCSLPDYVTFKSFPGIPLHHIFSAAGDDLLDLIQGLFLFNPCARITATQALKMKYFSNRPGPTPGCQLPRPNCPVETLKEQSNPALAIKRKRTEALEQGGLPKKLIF
Chain of CDK7/cyclinH/MAT1(h) (P51946 whole entry partner): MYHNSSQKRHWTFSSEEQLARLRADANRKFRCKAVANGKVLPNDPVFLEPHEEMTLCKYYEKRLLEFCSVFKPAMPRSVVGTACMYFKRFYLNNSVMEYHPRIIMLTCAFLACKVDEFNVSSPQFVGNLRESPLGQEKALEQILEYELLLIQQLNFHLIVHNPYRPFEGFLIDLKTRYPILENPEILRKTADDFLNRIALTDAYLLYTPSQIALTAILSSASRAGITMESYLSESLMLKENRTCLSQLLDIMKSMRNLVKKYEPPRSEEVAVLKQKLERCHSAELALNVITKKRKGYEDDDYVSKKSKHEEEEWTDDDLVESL
Chain of CDK7/cyclinH/MAT1(h) (P51948 whole entry partner): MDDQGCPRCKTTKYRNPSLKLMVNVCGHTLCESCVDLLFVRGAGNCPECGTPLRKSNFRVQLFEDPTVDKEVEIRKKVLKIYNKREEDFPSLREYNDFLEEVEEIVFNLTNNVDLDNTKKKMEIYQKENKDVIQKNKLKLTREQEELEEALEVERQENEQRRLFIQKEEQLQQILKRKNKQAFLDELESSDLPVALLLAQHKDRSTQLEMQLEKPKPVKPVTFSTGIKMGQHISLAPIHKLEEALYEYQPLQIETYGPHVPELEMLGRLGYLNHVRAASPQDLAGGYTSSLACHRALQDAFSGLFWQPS
Chain of MELK(h) (Q14680 whole entry): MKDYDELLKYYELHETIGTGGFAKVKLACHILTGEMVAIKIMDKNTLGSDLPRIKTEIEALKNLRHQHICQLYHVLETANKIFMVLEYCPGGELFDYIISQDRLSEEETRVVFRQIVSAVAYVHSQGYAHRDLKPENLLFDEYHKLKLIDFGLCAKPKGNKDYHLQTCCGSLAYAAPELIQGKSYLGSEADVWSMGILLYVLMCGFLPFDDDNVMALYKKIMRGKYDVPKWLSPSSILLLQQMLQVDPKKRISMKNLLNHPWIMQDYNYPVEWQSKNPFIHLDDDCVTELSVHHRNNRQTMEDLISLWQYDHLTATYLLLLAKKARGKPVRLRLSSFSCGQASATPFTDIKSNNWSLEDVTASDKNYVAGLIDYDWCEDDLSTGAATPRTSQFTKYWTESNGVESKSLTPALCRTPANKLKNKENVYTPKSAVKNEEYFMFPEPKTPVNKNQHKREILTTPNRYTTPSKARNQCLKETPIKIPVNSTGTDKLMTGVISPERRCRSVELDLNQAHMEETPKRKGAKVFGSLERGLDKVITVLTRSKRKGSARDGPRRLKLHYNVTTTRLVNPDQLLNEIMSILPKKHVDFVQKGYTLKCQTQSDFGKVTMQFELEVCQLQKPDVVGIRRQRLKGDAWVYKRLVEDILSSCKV
Chain of IKKα(h) (O15111 whole entry): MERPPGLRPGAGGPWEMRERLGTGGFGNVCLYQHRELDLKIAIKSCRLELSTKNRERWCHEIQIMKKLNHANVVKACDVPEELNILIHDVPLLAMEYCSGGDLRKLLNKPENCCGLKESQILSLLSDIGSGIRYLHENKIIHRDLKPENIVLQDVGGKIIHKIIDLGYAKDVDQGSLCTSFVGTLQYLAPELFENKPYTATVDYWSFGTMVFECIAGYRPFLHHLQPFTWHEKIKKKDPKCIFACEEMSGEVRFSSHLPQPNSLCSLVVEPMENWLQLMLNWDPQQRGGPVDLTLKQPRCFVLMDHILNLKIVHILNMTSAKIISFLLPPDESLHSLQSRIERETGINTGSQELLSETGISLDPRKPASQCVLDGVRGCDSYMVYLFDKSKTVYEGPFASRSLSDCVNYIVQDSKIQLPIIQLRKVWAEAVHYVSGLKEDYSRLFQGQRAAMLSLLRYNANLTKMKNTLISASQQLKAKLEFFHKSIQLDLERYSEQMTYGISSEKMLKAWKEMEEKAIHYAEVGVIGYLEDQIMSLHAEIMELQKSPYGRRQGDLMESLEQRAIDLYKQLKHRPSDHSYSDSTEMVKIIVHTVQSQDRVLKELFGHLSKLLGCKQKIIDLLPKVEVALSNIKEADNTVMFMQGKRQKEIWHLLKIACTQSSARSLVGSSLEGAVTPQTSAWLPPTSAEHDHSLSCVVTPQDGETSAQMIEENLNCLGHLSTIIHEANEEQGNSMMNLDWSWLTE
Chain of CaMKIV(h) (Q16566 whole entry): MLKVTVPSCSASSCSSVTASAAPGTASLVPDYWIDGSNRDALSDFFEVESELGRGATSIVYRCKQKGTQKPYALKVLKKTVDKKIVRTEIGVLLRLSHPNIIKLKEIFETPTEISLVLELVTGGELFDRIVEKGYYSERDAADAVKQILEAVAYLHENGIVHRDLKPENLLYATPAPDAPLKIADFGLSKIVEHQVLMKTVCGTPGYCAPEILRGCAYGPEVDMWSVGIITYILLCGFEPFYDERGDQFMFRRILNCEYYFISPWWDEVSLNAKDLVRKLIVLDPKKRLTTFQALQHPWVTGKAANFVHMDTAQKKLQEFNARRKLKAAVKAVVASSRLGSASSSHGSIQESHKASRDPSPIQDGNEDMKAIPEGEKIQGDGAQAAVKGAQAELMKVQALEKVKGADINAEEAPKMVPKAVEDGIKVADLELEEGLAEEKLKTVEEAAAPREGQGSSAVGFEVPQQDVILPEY
Chain of Blk(m) (P16277 2-499 limits assumed): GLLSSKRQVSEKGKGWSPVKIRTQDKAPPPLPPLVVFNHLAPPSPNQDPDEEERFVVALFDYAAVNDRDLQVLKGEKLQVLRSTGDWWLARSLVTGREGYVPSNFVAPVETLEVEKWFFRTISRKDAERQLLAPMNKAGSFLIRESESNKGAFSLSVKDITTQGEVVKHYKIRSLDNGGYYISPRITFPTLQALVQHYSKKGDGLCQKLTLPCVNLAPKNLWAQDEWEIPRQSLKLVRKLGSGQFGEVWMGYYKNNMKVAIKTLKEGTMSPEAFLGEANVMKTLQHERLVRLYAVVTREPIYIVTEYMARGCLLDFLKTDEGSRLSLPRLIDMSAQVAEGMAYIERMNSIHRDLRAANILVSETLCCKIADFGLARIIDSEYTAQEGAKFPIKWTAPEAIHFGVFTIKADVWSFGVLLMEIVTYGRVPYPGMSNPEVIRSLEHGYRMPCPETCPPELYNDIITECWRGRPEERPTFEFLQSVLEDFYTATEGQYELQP
Chain of ZAK(h) (Q9NYL2 whole entry): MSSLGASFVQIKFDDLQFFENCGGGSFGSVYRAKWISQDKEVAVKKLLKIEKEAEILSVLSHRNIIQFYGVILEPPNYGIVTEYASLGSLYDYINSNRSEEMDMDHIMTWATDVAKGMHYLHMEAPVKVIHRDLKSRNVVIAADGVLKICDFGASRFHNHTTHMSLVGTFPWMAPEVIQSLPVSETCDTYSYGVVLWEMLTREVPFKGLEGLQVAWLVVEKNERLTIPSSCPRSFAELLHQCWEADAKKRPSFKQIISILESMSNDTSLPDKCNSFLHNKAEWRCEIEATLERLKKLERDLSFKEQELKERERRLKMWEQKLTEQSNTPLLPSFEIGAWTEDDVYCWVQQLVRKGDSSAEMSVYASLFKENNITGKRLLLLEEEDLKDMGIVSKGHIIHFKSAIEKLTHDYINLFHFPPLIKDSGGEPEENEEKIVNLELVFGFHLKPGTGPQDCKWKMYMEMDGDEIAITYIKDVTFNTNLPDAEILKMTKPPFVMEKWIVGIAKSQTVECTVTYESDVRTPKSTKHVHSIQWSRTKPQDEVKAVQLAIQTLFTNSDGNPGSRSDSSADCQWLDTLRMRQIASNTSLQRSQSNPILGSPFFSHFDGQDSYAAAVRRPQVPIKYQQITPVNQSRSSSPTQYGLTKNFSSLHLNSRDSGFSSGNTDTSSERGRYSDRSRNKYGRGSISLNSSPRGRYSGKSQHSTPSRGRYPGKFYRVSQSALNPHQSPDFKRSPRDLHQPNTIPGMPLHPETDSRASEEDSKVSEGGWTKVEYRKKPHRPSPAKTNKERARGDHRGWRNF
Chain of Opiate δ1 (OP1, DOP) (P41143 whole entry): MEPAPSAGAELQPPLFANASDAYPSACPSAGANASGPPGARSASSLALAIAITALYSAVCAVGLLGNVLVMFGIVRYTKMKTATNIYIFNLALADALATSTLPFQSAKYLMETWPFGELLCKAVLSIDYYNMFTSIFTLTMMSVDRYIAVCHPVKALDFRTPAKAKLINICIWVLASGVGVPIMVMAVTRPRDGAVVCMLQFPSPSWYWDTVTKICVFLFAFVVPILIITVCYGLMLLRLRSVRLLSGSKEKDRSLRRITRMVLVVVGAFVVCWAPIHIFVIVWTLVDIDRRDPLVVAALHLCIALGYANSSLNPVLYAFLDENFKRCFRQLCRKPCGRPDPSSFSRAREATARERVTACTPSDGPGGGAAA
Chain of Serotonin (5-Hydroxytryptamine) 5-HT1B (P28222 whole entry): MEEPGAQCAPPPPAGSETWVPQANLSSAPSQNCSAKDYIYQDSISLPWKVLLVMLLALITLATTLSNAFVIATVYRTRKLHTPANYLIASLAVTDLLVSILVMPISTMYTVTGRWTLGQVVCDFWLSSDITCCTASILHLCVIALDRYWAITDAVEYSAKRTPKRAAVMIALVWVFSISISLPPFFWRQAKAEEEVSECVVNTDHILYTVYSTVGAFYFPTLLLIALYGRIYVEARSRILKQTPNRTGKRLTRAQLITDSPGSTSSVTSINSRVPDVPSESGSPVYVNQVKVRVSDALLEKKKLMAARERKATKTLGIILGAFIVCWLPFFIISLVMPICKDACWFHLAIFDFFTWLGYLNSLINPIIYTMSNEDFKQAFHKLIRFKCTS

COc1ccc(OC)c(NS(=O)(=O)c2ccc(NC(=O)CCSc3ccc(C)cc3)cc2)c1 [Compound A41]
colony formation [1]: Inhibitory effect
frequency of primary tumor re-growth (mice with regrowth) ([2]; 4 weeks post resection): 40%
survival rate ([2]; 4 weeks post resection): 80%
metastasis frequency ([2]; after primary tumor resection): significantly reduced metastasis frequency
% inh. [3]: -25%
% inh. [4]: 45%
% inh. [5]: 6%
% inh. [6]: 15%
Activity(%) [7]: 87%
Activity(%) [8]: 117%
Activity(%) [9]: 114%
Activity(%) [10]: 106%
Activity(%) [11]: 88%
Activity(%) [12]: 114%
Activity(%) [13]: 107%
Activity(%) [14]: 107%
Activity(%) [15]: 108%
Activity(%) [16]: 120%
Activity(%) [17]: 104%
Activity(%) [18]: 107%
Activity(%) [19]: 128%
Activity(%) [20]: 102%
Activity(%) [21]: 109%
Activity(%) [22]: 114%
